Laboratory results from patent US20240041042A1, “1-(PYRIDYL)-5-AZINYLPYRAZOLE DERIVATIVES, AND THEIR USE FOR CONTROL OF UNDESIRED PLANT GROWTH” (Bayer Aktiengesellschaft, priority 2020, published 2024).
Where two headings read alike, the source gives them in different places.

Experiments:
Type in all cases: in vivo
[1] = test system: Digitaria sanguinalis (DIGSA); assay: Post-emergence herbicidal action against DIGSA; conditions: visual rating about 3 weeks after treatment
Description: Seeds of monocotyledonous and dicotyledonous weeds and crop plants are placed in sandy loam in plastic or organic planting pots, covered with soil and cultivated in a greenhouse under controlled growth conditions. 2 to 3 weeks after sowing, the test plants are treated at the one-leaf stage. The compounds of the invention, formulated in the form of wettable powders (WP) or as emulsion concentrates (EC), are then sprayed onto the green parts of the plants as aqueous suspension or emulsion with addition of 0.5% additive at a water application rate of 600 l/ha (converted). After the test plants have been kept in the greenhouse under optimum growth conditions for about 3 weeks, the activity of the preparations is rated visually in comparison to untreated controls. For example, 100% activity=the plants have died, 0% activity=like control plants.
Tables B1 to B13 below show the effects of selected compounds of the general formula (I) according to Table 1 on various harmful plants and at an application rate corresponding to 320 g/ha or lower, which were obtained by the experimental procedure mentioned above. The appendices “a”, “b” and “c” give differentiation by dosage used with otherwise the same harmful plants tested.

[2] = test system: Viola tricolor (VIOTR); assay: Post-emergence herbicidal action against VIOTR; conditions: 320 g/ha
Outline: (§1)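 Post-emergence greenhouse spray, one-leaf stage, 600 l/ha water plus 0.5% additive; WP or EC formulations; application rates 320 g/ha or lower. Visual % damage vs untreated controls at ~3 weeks.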

[3] = test system: Verconica persica (VERPE); assay: Post-emergence herbicidal action against VERPE
Outline: as §1

[4] = test system: Setaria viridis (SETVI); assay: Post-emergence herbicidal action against SETVI
Outline: as §1

[5] = test system: Lolium rigidum (LOLRI); assay: Post-emergence herbicidal action against LOLRI
Outline: as §1

[6] = test system: Pharbitis purpurea (PHBPU); assay: Post-emergence herbicidal action against PHBPU
Outline: as §1

[7] = test system: Oryza sativa (ORYSA); conditions: crop plant compatibility
Outline: (§2)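 One-leaf-stage crops (2–3 wk post-sowing, sandy loam, greenhouse) sprayed on green parts; 0.5% additive, 600 l/ha water. Rated by eye ~3 wk later, % vs untreated; suffixes a/b/c mark different dosages.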

[8] = test system: Echinochloa crus-galli (ECHCG); assay: Post-emergence herbicidal action against ECHCG
Outline: as §1

[9] = test system: Avena fatua (AVEFA); assay: Post-emergence herbicidal action against AVEFA; conditions: visual rating about 3 weeks after treatment
Outline: as §1

[10] = test system: Alopecurus myosuroides (ALOMY); assay: Post-emergence herbicidal action against ALOMY; conditions: visual rating about 3 weeks after treatment vs untreated controls (100% = plants have died, 0% = like control plants)
Outline: as §1

[11] = test system: Polygonum convolvulus (POLCO); assay: Post-emergence herbicidal action against POLCO; conditions: dosage 320 g/ha
Outline: as §1

[12] = test system: Zea mays (ZEAMX); conditions: for Post-emergence action against ZEAMX in % (crop plant compatibility): 20 g/ha, effect in comparison to untreated controls
Outline: as §2

[13] = test system: Polygonum convolvulus (POLCO); assay: Pre-emergence herbicidal action against POLCO
Outline: (§3)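 Seeds sown in pots and covered with soil; WP or EC formulations sprayed onto the soil surface at 600 l/ha water with 0.5% additive, at 320 g/ha or lower. Greenhouse growth for about 3 weeks, then visual scoring as % effect against untreated controls (100% = plants dead).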

[14] = test system: Avena fatua (AVEFA); assay: Pre-emergence herbicidal action against AVEFA; conditions: 320 g/ha, visual scoring after about 3 weeks vs untreated controls
Outline: as §3

[15] = test system: Amaranthus retroflexus (AMARE); assay: Post-emergence herbicidal action against AMARE; conditions: 80 g/ha, visual rating about 3 weeks after treatment vs untreated controls (100% = plants have died, 0% = like control plants)
Outline: as §1

[16] = test system: Amaranthus retroflexus (AMARE); assay: Pre-emergence herbicidal action against AMARE; conditions: visual scoring after about 3 weeks vs untreated controls
Outline: as §3

[17] = test system: Setaria viridis (SETVI); assay: Pre-emergence herbicidal action against SETVI; conditions: dosage 320 g/ha
Outline: as §3

[18] = test system: Lolium rigidum (LOLRI); assay: Pre-emergence herbicidal action against LOLRI
Outline: as §3

[19] = test system: Echinochloa crus-galli (ECHCG); assay: Pre-emergence herbicidal action against ECHCG; conditions: dosage 320 g/ha
Outline: as §3

[20] = test system: Abutilon theophrasti (ABUTH); assay: Post-emergence herbicidal action against ABUTH; conditions: 80 g/ha, visual rating about 3 weeks after treatment vs untreated controls (100% = plants have died, 0% = like control plants)
Outline: as §1

[21] = test system: Matricaria inodora (MATIN); assay: Post-emergence herbicidal action against MATIN; conditions: dosage 80 g/ha
Outline: as §1

[22] = test system: Matricaria inodora (MATIN); assay: Pre-emergence herbicidal action against MATIN; conditions: dosage 320 g/ha
Outline: as §3

[23] = test system: Alopecurus myosuroides (ALOMY); assay: Pre-emergence herbicidal action against ALOMY; conditions: scored visually after about 3 weeks, 100% = plants have died
Outline: as §3

[24] = test system: Viola tricolor (VIOTR); assay: Pre-emergence herbicidal action against VIOTR
Outline: as §3

[25] = test system: Pharbitis purpurea (PHBPU); assay: Pre-emergence herbicidal action against PHBPU; conditions: dosage 320 g/ha
Outline: as §3

[26] = test system: Verconica persica (VERPE); assay: Pre-emergence herbicidal action against VERPE; conditions: dosage 320 g/ha
Outline: as §3

[27] = 20 g/ha, effect vs untreated controls
[28] = 80 g/ha, effect in comparison to untreated controls

SMILES	Post-emergence action against DIGSA in % ([1]; 80 g/ha) [%]	Post-emergence action against DIGSA in % ([1]; 320 g/ha) [%]	Post-emergence action against VIOTR in % [2] [%]	Post-emergence action against VERPE in % ([3]; 320 g/ha, VERPE) [%]	Post-emergence action against VERPE in % ([3]; dosage 80 g/ha) [%]	Post-emergence action against SETVI in % ([4]; dosage 80 g/ha) [%]	Post-emergence action against SETVI in % ([4]; dosage 320 g/ha) [%]	Post-emergence action against LOLRI in % ([5]; dosage 80 g/ha) [%]	Post-emergence action against LOLRI in % ([5]; dosage 320 g/ha) [%]	Post-emergence action against PHBPU in % ([6]; dosage 320 g/ha) [%]	Post-emergence action against ORYSA in % [7, 27] [%]	Post-emergence action against ORYSA in % [7, 28] [%]	Post-emergence action against ECHCG in % ([8]; dosage 320 g/ha) [%]	Post-emergence action against AVEFA in % ([9]; 80 g/ha) [%]	Post-emergence action against ALOMY in % ([10]; 320 g/ha) [%]	Post-emergence action against POLCO in % [11] [%]	Post-emergence action against ZEAMX in % (crop plant compatibility) [12] [%]	other results
COC(=O)C(C)OC(=O)C(C)Oc1nn(-c2ccccn2)c(-c2ccc(F)nc2)c1Br (stereo not shown) [Example I-288]	80	90	80	80	80	90	90	80	80	90	0	10	80	80	90	80		Post-emergence action against PHBPU in % ([6]; dosage 80 g/ha): 80%; Post-emergence action against AVEFA in % ([9]; 320 g/ha): 90%
COC(=O)CCOC(=O)[C@@H](C)Oc1nn(-c2ccccn2)c(-c2ccc(F)nc2)c1Br [Example I-290]	90	90	80	80	80	90	90		80	90	0	10	90		90	80	0	Post-emergence action against ZEAMX in % ([12]; crop plant compatibility, 80 g/ha, effect vs untreated controls): 10%; Post-emergence action against ECHCG in % ([8]; dosage 80 g/ha): 80%
CC(C)=NOC(=O)[C@@H](C)Oc1nn(-c2ncccc2F)c(-c2ccc(F)nc2)c1Br [Example I-374]					80	90		90			10			90			10	Pre-emergence action against POLCO in % ([13]; dosage 80 g/ha): 80%; Pre-emergence action against POLCO in % ([13]; dosage 320 g/ha): 90%; Pre-emergence action against AVEFA in % [14]: 100%; Post-emergence action against AMARE in % [15]: 80%; Pre-emergence action against AMARE in % ([16]; 80 g/ha): 100%; Pre-emergence action against AMARE in % ([16]; 320 g/ha): 100%; Pre-emergence action against SETVI in % [17]: 100%; Pre-emergence action against LOLRI in % ([18]; dosage 80 g/ha): 80%; Pre-emergence action against LOLRI in % ([18]; dosage 320 g/ha): 100%; Pre-emergence action against ECHCG in % [19]: 100%; Post-emergence action against ABUTH in % [20]: 80%; Post-emergence action against MATIN in % [21]: 80%; Pre-emergence action against MATIN in % [22]: 90%; Pre-emergence action against ALOMY ([23]; 80 g/ha): 90%; Pre-emergence action against ALOMY ([23]; 320 g/ha): 100%; Pre-emergence action against VIOTR in % ([24]; 320 g/ha, Viola tricolor): 100%; Pre-emergence action against VIOTR in % ([24]; dosage 80 g/ha): 90%; Post-emergence action against ALOMY in % ([10]; 80 g/ha): 100%; Pre-emergence action against PHBPU in % [25]: 90%; Pre-emergence action against VERPE in % [26]: 100%
